In experiment [1] the target is T1, hNav1.7 (Homo sapiens (Human), UniProt Q15858). The experiment in a line: Tritiated compound binding to membranes from cells expressing hNav1.7 and the β1 subunit, competitive binding (LBA, Ex. 243A). Conditions: 100 pM [3H]compound, 18 h, room temperature.
Target sequence in this assay (Q15858 whole entry, looked up): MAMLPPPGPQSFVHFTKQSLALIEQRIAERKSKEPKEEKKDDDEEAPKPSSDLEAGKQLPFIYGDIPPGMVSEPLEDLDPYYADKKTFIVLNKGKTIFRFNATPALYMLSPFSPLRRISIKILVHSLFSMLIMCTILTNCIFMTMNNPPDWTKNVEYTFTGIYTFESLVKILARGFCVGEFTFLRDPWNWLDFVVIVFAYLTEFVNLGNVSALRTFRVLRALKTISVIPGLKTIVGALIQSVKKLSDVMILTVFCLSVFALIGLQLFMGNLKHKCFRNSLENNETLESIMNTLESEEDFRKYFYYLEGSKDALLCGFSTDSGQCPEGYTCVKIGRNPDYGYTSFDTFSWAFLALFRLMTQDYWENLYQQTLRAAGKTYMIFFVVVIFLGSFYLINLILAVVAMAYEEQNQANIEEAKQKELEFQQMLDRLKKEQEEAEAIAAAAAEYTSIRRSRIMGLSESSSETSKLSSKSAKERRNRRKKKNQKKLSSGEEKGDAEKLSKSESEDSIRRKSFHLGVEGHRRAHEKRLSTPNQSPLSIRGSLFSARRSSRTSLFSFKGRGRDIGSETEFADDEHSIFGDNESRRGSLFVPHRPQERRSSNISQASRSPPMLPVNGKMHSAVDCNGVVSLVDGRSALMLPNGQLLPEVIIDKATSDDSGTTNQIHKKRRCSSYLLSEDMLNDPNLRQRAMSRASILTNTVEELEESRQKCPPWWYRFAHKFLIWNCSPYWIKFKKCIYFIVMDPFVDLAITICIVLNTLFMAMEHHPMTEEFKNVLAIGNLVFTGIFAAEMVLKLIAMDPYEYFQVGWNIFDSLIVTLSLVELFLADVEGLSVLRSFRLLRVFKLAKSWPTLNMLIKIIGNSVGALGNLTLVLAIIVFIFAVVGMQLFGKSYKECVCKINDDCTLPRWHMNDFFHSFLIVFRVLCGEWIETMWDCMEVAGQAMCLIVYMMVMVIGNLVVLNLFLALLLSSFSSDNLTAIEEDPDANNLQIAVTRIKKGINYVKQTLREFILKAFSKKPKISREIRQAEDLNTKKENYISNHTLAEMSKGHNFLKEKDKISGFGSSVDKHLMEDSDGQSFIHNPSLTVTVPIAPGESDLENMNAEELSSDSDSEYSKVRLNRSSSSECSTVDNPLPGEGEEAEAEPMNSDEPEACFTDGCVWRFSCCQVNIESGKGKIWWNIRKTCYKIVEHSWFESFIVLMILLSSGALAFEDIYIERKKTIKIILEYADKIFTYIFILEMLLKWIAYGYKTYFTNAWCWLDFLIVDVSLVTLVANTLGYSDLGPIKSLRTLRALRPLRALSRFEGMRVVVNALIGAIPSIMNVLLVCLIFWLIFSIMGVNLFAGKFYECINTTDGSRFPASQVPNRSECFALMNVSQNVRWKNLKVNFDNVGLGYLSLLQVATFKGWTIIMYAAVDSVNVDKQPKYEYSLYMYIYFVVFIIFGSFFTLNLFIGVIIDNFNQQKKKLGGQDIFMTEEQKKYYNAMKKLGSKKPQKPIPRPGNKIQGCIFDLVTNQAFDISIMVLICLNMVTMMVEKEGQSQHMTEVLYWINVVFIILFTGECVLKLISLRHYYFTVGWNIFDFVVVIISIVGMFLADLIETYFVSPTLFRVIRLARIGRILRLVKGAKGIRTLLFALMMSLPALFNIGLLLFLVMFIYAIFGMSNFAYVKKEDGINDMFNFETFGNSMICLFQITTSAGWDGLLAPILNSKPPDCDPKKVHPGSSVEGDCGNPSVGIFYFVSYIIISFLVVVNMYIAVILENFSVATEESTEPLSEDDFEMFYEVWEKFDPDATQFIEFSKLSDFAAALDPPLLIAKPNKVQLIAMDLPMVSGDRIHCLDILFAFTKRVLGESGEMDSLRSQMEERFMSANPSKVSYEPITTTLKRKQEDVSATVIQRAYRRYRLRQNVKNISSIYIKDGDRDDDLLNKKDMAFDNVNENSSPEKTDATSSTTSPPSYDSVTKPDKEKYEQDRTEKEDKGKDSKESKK
Target sequence in this assay (Q07699 whole entry partner, looked up): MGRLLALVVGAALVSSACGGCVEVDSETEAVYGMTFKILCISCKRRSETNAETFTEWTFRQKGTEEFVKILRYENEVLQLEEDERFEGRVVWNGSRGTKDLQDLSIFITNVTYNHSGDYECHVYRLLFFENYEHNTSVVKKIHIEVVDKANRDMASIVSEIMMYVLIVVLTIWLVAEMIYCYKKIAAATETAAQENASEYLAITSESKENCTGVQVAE
For experiment [2], the target named is T1, hNav1.7. The experiment in a line: Tritiated compound binding to membranes from cells expressing hNav1.7 and the β1 subunit, modified protocol (LBA, Ex. 243B). Conditions: 300 pM [3H]compound, room temperature, read-out: Nav1.7 LBA (Ex. 243B) IC50.
Target sequence in this assay (Q15858 whole entry, looked up): as the sequence (Q15858 whole entry, looked up) above
Target sequence in this assay (Q07699 whole entry partner, looked up): as the sequence (Q07699 whole entry partner, looked up) above
Experiment [3] has as its target T1, hNav1.7. Description: Patch voltage clamp electrophysiology assay (EP), Syncropatch 384PE, CHO cells expressing Nav1.7. Type of experiment: cell-based. Conditions: holding potential -50 mV; […] compound incubation; read-out: EP_SP hNav1.7 (Ex. 243B) IC50. The method in brief: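 Automated whole-cell patch clamp on CHO cells stably expressing human Nav1.7, CsCl/EGTA internal and NMDG/80 mM Na+ external (pH 7.4). From −50 mV holding, −10 mV step, 20 ms recovery at −150 mV, then second −10 mV pulse where block is measured; inhibition after 7.5 min compound incubation.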
Target sequence in this assay (Q15858 other isoform, or with tags, fused parts or gaps): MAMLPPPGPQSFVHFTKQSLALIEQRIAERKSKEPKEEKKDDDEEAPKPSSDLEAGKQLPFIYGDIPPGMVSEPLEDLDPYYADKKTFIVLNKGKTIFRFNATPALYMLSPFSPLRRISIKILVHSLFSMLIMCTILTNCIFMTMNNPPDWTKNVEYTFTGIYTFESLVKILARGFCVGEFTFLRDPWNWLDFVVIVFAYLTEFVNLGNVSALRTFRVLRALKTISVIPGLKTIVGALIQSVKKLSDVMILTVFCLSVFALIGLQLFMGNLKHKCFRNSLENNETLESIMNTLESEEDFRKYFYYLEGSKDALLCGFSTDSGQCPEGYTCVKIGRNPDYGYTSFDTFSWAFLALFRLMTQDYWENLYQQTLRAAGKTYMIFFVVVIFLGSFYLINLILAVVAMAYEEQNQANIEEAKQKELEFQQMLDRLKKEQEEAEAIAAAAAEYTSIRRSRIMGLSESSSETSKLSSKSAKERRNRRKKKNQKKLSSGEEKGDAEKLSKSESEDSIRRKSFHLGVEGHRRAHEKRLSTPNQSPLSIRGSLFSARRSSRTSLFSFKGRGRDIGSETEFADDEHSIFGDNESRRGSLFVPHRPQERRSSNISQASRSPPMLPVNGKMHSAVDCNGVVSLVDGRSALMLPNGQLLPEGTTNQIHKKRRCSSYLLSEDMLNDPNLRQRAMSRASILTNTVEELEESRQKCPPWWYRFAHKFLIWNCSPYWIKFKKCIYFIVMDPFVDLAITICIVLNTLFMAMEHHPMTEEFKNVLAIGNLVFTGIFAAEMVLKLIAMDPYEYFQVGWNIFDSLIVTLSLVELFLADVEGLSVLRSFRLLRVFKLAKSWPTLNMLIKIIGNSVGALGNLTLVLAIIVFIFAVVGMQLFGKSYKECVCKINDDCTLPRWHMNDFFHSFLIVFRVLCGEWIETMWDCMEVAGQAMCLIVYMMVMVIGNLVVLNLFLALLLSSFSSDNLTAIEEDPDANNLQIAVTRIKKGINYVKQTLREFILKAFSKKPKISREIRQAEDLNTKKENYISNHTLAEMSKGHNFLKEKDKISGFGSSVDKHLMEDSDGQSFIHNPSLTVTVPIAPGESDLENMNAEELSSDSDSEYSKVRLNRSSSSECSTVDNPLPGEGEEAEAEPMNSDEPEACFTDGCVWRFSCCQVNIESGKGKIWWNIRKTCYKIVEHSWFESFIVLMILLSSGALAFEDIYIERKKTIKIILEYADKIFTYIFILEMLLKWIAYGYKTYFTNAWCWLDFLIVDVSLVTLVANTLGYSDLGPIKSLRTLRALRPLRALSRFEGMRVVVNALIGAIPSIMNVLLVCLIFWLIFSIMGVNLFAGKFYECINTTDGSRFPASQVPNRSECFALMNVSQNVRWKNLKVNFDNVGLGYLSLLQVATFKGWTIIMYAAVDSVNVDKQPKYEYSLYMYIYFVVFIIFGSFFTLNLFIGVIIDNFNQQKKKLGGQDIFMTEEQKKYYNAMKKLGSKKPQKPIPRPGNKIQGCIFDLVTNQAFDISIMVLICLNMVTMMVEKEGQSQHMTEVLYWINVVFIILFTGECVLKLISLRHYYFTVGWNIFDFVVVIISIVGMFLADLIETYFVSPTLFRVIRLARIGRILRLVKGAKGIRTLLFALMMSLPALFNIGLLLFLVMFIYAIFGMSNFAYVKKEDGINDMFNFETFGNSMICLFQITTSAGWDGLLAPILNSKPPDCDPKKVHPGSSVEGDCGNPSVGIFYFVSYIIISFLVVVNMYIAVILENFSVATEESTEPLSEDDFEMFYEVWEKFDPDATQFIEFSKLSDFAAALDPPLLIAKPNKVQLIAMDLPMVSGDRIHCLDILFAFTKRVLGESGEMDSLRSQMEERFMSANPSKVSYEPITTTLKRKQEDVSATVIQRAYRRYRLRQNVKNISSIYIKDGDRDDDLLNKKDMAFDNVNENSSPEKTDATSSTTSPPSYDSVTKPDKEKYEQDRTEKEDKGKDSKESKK
A general note: The patch-clamp technique gives a direct electrical read-out from membranes.

The mark [4] stands for this setting: read-out: Nav1.7 LBA (Ex. 243A) IC50.

The source of these data is patent US10457654B2 (GENENTECH, INC., priority 2017, dated 2019).

Counter-ions that a name gives are not always drawn.

Take `CN(C)[C@H]1CCCC[C@@H]1Nc1cc(F)c(S(=O)(=O)Nc2cccc(F)n2)cc1Cl` [Example 35, 5-chloro-4-(((1S,2S)-2-(dimethylamino)cyclohexyl)amino)-2-fluoro-N-(6-fluoropyridin-2-yl)benzenesulfonamide]: the results for the IC50 in experiment [1] (setting [4]), in experiment [2] and in experiment [3] were 0.0655 µM, 0.313 µM and 0.0599 µM, respectively.

As to `CN(C1CNC1)[C@H]1CCCC[C@@H]1Nc1cc(F)c(S(=O)(=O)Nc2ccncn2)cc1Cl` [Example 53, 4-(((1S,2S)-2-(azetidin-3-yl(methyl)amino)cyclohexyl)amino)-5-chloro-2-fluoro-N-(pyrimidin-4-yl)benzenesulfonamide], the IC50 turned out to be 0.0305 µM in experiment [1] (setting [4]) and 0.00569 µM in experiment [3]. The like results for `O=S(=O)(Nc1nccs1)c1cc(Cl)c(N[C@H]2CCCC[C@@H]2N2CCCC2)cc1F` [Example 30, 5-chloro-2-fluoro-4-(((1S,2S)-2-(pyrrolidin-1-yl)cyclohexyl)amino)-N-(thiazol-2-yl)benzenesulfonamide] were, in that order, 0.00973 µM and 0.00977 µM.

As to `CN1CC(N(C)[C@H]2CCCC[C@@H]2Nc2cc(F)c(S(=O)(=O)Nc3cccc(F)n3)cc2Cl)C1` [Example 63, 5-chloro-2-fluoro-N-(6-fluoropyridin-2-yl)-4-(((1S,2S)-2-(methyl(1-methylazetidin-3-yl)amino)cyclohexyl)amino)benzenesulfonamide], the IC50 stood at 0.00981 µM in experiment [1] (setting [4]) and 0.00535 µM in experiment [3]. As for `COCCN(C)[C@H]1CCCC[C@@H]1Nc1cc(F)c(S(=O)(=O)Nc2nccs2)cc1Cl` [Example 32, 5-chloro-2-fluoro-4-(((1S,2S)-2-((2-methoxyethyl)(methyl)amino)cyclohexyl)amino)-N-(thiazol-2-yl)benzenesulfonamide formate], the IC50 in experiment [1] (setting [4]) stood at 0.0382 µM; in experiment [3], 0.0246 µM. Regarding `CN(C1CNC1)[C@H]1CCCC[C@@H]1Nc1cc(F)c(S(=O)(=O)Nc2nccs2)cc1Cl` [Example 39, 4-(((1S,2S)-2-(azetidin-3-yl(methyl)amino)cyclohexyl)amino)-5-chloro-2-fluoro-N-(thiazol-2-yl)benzenesulfonamide dihydrochloride], the IC50 in experiment [1] (setting [4]) is 0.00188 µM; in experiment [2] it was 0.0128 µM; in experiment [3], 0.0014 µM. As for `CN1CC(N(C)[C@H]2CCCC[C@@H]2Nc2cc(F)c(S(=O)(=O)Nc3nccs3)cc2Cl)C1` [Example 41, 5-chloro-2-fluoro-4-(((1S,2S)-2-(methyl(1-methylazetidin-3-yl)amino)cyclohexyl)amino)-N-(thiazol-2-yl)benzenesulfonamide formate], the IC50 in experiment [1] (setting [4]) stood at 0.00451 µM; in experiment [3], 0.0034 µM. For the compound `CN(CCO)[C@H]1CCCC[C@@H]1Nc1cc(F)c(S(=O)(=O)Nc2nccs2)cc1Cl` [Example 38, 5-chloro-2-fluoro-4-(((1S,2S)-2-((2-hydroxyethyl)(methyl)amino)cyclohexyl)amino)-N-(thiazol-2-yl)benzenesulfonamide formate], the IC50 amounted to 0.00505 µM in experiment [1] (setting [4]), 0.0349 µM in experiment [2] and 0.00306 µM in experiment [3]. The like results for `CN(C1CNC1)[C@H]1CCCC[C@@H]1Oc1cc(F)c(S(=O)(=O)Nc2nccs2)cc1Cl` [Example 66, 4-(((1S,2S)-2-(azetidin-3-yl(methyl)amino)cyclohexyl)oxy)-5-chloro-2-fluoro-N-(thiazol-2-yl)benzenesulfonamide formate] were, in that order, 0.00207 µM, 0.00774 µM and 0.00291 µM. Turning to `CN(C)[C@H]1CC[C@H](C(F)(F)F)C[C@@H]1Nc1cc(F)c(S(=O)(=O)Nc2nccs2)cc1Cl` [Example 75, 5-chloro-4-(((1S,2S,5S)-2-(dimethylamino)-5-(trifluoromethyl)cyclohexyl)amino)-2-fluoro-N-(thiazol-2-yl)benzenesulfonamide], the IC50 in experiment [1] (setting [4]) was 0.0379 µM. `Cc1csc(NS(=O)(=O)c2cc(Cl)c(N[C@H]3CCCC[C@@H]3N(C)C)cc2F)n1` [Example 27, 5-chloro-4-(((1 S,2S)-2-(dimethylamino)cyclohexyl)amino)-2-fluoro-N-(4-methylthiazol-2-yl)benzenesulfonamide formate]: the IC50 in experiment [1] (read-out: Nav1.7 (LBA) (Ex. 243A)) was determined as 0.149 µM. In the case of `O=S(=O)(Nc1nccs1)c1cc(Cl)c(N[C@H]2CCCC[C@@H]2N2CCOCC2)cc1F` [Example 101, 5-chloro-2-fluoro-4-(((1S,2S)-2-morpholinocyclohexyl)amino)-N-(thiazol-2-yl)benzenesulfonamide], the IC50 in experiment [1] (setting [4]) worked out at 0.0255 µM. Same read-out and setting: with `Cc1cnc(NS(=O)(=O)c2cc(Cl)c(N[C@H]3CCCC[C@@H]3N(C)C)cc2F)s1` [Example 40, 5-chloro-4-(((1S,2S)-2-(dimethylamino)cyclohexyl)amino)-2-fluoro-N-(5-methylthiazol-2-yl)benzenesulfonamide formate] the figure was 0.88 µM. Still for that read-out and setting: with `CN(C1CNC1)[C@H]1CCCC[C@@H]1Oc1cc(F)c(S(=O)(=O)Nc2nccs2)cc1C1CC1` [Example 90, 4-(((1S,2S)-2-(azetidin-3-yl(methyl)amino)cyclohexyl)oxy)-5-cyclopropyl-2-fluoro-N-(thiazol-2-yl)benzenesulfonamide formate] the figure was 0.00264 µM; with `O=S(=O)(Nc1nccs1)c1cc(Cl)c(N[C@H]2CCCC[C@@H]2N2CC(O)C2)cc1F` [Example 47, 5-chloro-2-fluoro-4-(((1 S,2S)-2-(3-hydroxyazetidin-1-yl)cyclohexyl)amino)-N-(thiazol-2-yl)benzenesulfonamide], 0.529 µM; with `CN(C)[C@@H]1CC[C@H](c2cccc(C(F)(F)F)c2)C[C@H]1Nc1cc(F)c(S(=O)(=O)Nc2nccs2)cc1Cl` [Example 103, 5-chloro-4-(((1R,2R,5S)-2-(dimethylamino)-5-(3-(trifluoromethyl)phenyl)cyclohexyl)amino)-2-fluoro-N-(thiazol-2-yl)benzenesulfonamide], 0.0322 µM. The same measure, in the same setting: with `CN(C)[C@H]1CCCC[C@@H]1Nc1cc(F)c(S(=O)(=O)Nc2ccncn2)cc1C1CC1` [Example 69, 5-cyclopropyl-4-(((1S,2S)-2-(dimethylamino)cyclohexyl)amino)-2-fluoro-N-(pyrimidin-4-yl)benzenesulfonamide formate] the figure was 0.296 µM; with `CN(C)[C@H]1CCCC[C@@H]1Nc1cc(F)c(S(=O)(=O)Nc2nccs2)cc1C(F)(F)F` [Example 65, 4-(((1S,2S)-2-(dimethylamino)cyclohexyl)amino)-2-fluoro-N-(thiazol-2-yl)-5-(trifluoromethyl)benzenesulfonamide], 0.0293 µM.
